Results from US10448639B2, “Fungicidal pyrazoles” (FMC CORPORATION, priority 2009, dated 2019).
Read-outs that look alike come from different tables or passages of the source.

Legend:
Botrytis cinerea = assay: Test B: tomato Botrytis, preventive spray on tomato seedlings, visual disease rating; settings: for Test B disease control rating / Test B rating (% disease control): tomato Botrytis, 100 = 100% disease control; for Test B disease control rating: 0 = no disease control relative to controls; for pest or weed control at 200 µg/mL: Botrytis cinerea, in Solanum lycopersicum, 120 h
[1] = test system: Puccinia recondita f. sp. tritici; assay: Test I: wheat leaf rust, preventive spray on wheat seedlings, visual disease rating; settings: for Test I disease control rating / Test I rating (% disease control): wheat leaf rust, 100 = 100% disease control; for Test I disease control rating: sprayed the day before inoculation, 0 = no disease control relative to controls; for pest or weed control at 200 µg/mL: 192 h
[2] = test system: Puccinia recondita f. sp. tritici; assay: Test H: wheat leaf rust, curative spray on inoculated wheat seedlings, visual disease rating; settings: for Test H disease control rating / Test H rating (% disease control): wheat leaf rust, 100 = 100% disease control; for Test H disease control rating: sprayed after inoculation, 0 = no disease control relative to controls; for pest or weed control at 200 µg/mL: 144 h
From the text: (§1) General protocol for preparing test suspensions for Tests A-J: the test compounds were first dissolved in acetone in an amount equal to 3% of the final volume and then suspended at the desired concentration (in ppm) in acetone and purified water (50/50 mix by volume) containing 250 ppm of the surfactant Trem® 014 (polyhydric alcohol esters). The resulting test suspensions were then used in Tests A-J. Spraying a 200 ppm test suspension to the point of run-off on the test plants was the equivalent of a rate of 500 g/ha. Unless otherwise indicated, the rating values indicate a 200 ppm test suspension was used. (An asterisk “*” next to the rating value indicates a 40 ppm test suspension was used.)
Wheat seedlings were inoculated with a spore suspension of Puccinia recondita f. sp. tritici (the causal agent of wheat leaf rust) and incubated in a saturated atmosphere at 20° C. for 24 h, and then moved to a growth chamber at 20° C. for 2 days. At the end of this time the test suspension was sprayed to the point of run-off, and then the seedlings were moved to a growth chamber at 20° C. for 6 days after which time visual disease ratings were made.

Alternaria solani = assay: Test C: tomato early blight, preventive spray on tomato seedlings, visual disease rating; settings: for Test C disease control rating / Test C rating (% disease control): tomato early blight, 100 = 100% disease control; for Test C disease control rating: 0 = no disease control relative to controls; for pest or weed control at 200 µg/mL: Alternaria solani, in Solanum lycopersicum, 168 h
From the text: as §1
The test suspension was sprayed to the point of run-off on tomato seedlings. The following day the seedlings were inoculated with a spore suspension of Alternaria solani (the causal agent of tomato early blight) and incubated in a saturated atmosphere at 27° C. for 48 h, and then moved to a growth chamber at 20° C. for 5 days, after which time visual disease ratings were made.

Septoria tritici = assay: Test G: wheat leaf blotch, preventive spray on wheat seedlings, visual disease rating; settings: for Test G disease control rating / Test G rating (% disease control): wheat leaf blotch, 100 = 100% disease control; for Test G disease control rating: sprayed the day before inoculation, 0 = no disease control relative to controls; for pest or weed control at 200 µg/mL: Zymoseptoria tritici, in Triticum aestivum, 504 h
[3] = test system: Erysiphe graminis f sp. tritici; assay: Test J: wheat powdery mildew, preventive spray on wheat seedlings, visual disease rating; settings: for Test J disease control rating / Test J rating (% disease control): wheat powdery mildew, 100 = 100% disease control; for Test J disease control rating: sprayed the day before inoculation, 0 = no disease control relative to controls; for pest or weed control at 200 µg/mL: Blumeria graminis, in Triticum aestivum, 192 h
Septoria nodorum = assay: Test F: Septoria glume blotch, preventive spray on wheat seedlings, visual disease rating; settings: for Test F disease control rating / Test F rating (% disease control): 100 = 100% disease control; for Test F disease control rating: 0 = no disease control relative to controls; for pest or weed control at 200 µg/mL: Parastagonospora nodorum, in Triticum aestivum, 192 h
[4] = 0 = no control relative to controls
[5] = preventive, 0 = no control relative to controls
[6] = curative, 0 = no control relative to controls
[7] = Septoria glume blotch, 0 = no control relative to controls
[8] = read-out: Test B rating (% disease control)
[9] = read-out: Test I rating (% disease control)
[10] = read-out: Test H rating (% disease control)
[11] = read-out: Test C rating (% disease control)
[12] = read-out: Test G rating (% disease control)
[13] = read-out: Test J rating (% disease control)
[14] = read-out: Test F rating (% disease control)
[15] = preventive spray, 0 = no control
[16] = Septoria glume blotch on wheat, preventive spray, 0 = no control

SMILES: COc1ccc(Nc2c(-c3ccc(F)cc3Br)c(C)nn2C)c(Cl)c1 [compound 324]
- Test B disease control rating (Botrytis cinerea): 99%
- Test I disease control rating [1]: 99%
- Test H disease control rating [2]: 63%
- Test C disease control rating (Alternaria solani): 83%
- Test G disease control rating (Septoria tritici): 100%
- Test J disease control rating [3]: 99%
- Test F disease control rating (Septoria nodorum; Septoria glume blotch on wheat): 0%

SMILES: Cc1ccc(Oc2c(-c3c(F)cc(F)cc3F)c(C)nn2C)cc1C [compound 209]
- Test B rating (% disease control) (Botrytis cinerea; [4]): 0%
- Test I rating (% disease control) [1, 5]: 0%
- Test H rating (% disease control) [2, 6]: 0%
- Test C rating (% disease control) (Alternaria solani; [4]): 0%
- Test G rating (% disease control) (Septoria tritici; [4]): 0%
- Test J rating (% disease control) [3, 4]: 97%
- Test F rating (% disease control) (Septoria nodorum; [7]): 0%

SMILES: Cc1nn(C)c(Nc2c(F)cc(F)cc2Cl)c1-c1c(F)cccc1F [Compound 297, N-(2-chloro-4,6-difluorophenyl)-4-(2,6-difluorophenyl)-1,3-dimethyl-1H-pyrazol-5-amine]
- pest or weed control at 200 µg/mL (Botrytis cinerea; [8]): 100%
- pest or weed control at 200 µg/mL [1, 9]: 100%
- pest or weed control at 200 µg/mL [2, 10]: 0%
- pest or weed control at 200 µg/mL (Alternaria solani; [11]): 99%
- pest or weed control at 200 µg/mL (Septoria tritici; [12]): 100%
- pest or weed control at 200 µg/mL [3, 13]: 100%
- pest or weed control at 200 µg/mL (Septoria nodorum; [14]): 90%

SMILES: COc1cc(F)c(-c2c(C)nn(C)c2Nc2cc(Cl)c(OC)cc2OC)c(F)c1 [compound 81]
- Test B rating (% disease control) (Botrytis cinerea; [15]): 97%
- Test I rating (% disease control) [1, 15]: 27%
- Test H rating (% disease control) ([2]; curative spray, 0 = no control): 0%
- Test C rating (% disease control) (Alternaria solani; [15]): 0%
- Test G rating (% disease control) (Septoria tritici; [15]): 0%
- Test J rating (% disease control) [3, 15]: 0%
- Test F rating (% disease control) (Septoria nodorum; [16]): 0%

SMILES: COc1cc(F)c(-c2c(C)nn(C)c2Oc2ccc(Cl)c(OC)c2)c(F)c1 [compound 211]
- Test B rating (% disease control) (Botrytis cinerea; [4]): 77%
- Test I rating (% disease control) [1, 5]: 17%
- Test H rating (% disease control) [2, 6]: 0%
- Test C rating (% disease control) (Alternaria solani; [4]): 0%
- Test G rating (% disease control) (Septoria tritici; [4]): 99%
- Test J rating (% disease control) [3, 4]: 96%
- Test F rating (% disease control) (Septoria nodorum; [7]): 0%

SMILES: COc1ccc(-c2c(C)nn(C)c2Oc2c(F)cc(C#N)cc2F)c(Cl)c1 [compound 155]
- Test B rating (% disease control) (Botrytis cinerea; [4]): 100%
- Test I rating (% disease control) [1, 5]: 100%
- Test H rating (% disease control) [2, 6]: 92%
- Test C rating (% disease control) (Alternaria solani; [4]): 99%
- Test G rating (% disease control) (Septoria tritici; [4]): 100%
- Test J rating (% disease control) [3, 4]: 99%
- Test F rating (% disease control) (Septoria nodorum; [7]): 100%

SMILES: Cc1nn(C)c(Nc2cccc(F)c2)c1-c1c(F)cc(C#N)cc1F [compound 136]
- Test B rating (% disease control) (Botrytis cinerea; [15]): 99%
- Test I rating (% disease control) [1, 15]: 99%
- Test H rating (% disease control) ([2]; curative spray, 0 = no control): 0%
- Test C rating (% disease control) (Alternaria solani; [15]): 71%
- Test G rating (% disease control) (Septoria tritici; [15]): 99%
- Test J rating (% disease control) [3, 15]: 100%
- Test F rating (% disease control) (Septoria nodorum; [16]): 86%

SMILES: Cc1nn(C)c(Oc2c(Cl)cc(C(F)(F)F)cc2Cl)c1-c1c(F)cc(F)cc1F [compound 30]
- Test B rating (% disease control) (Botrytis cinerea; [15]): 7%
- Test I rating (% disease control) [1, 15]: 79%
- Test H rating (% disease control) ([2]; curative spray, 0 = no control): 0%
- Test C rating (% disease control) (Alternaria solani; [15]): 0%
- Test G rating (% disease control) (Septoria tritici; [15]): 41%
- Test J rating (% disease control) [3, 15]: 0%
- Test F rating (% disease control) (Septoria nodorum; [16]): 0%

SMILES: COc1ccc(Nc2c(-c3ccc(Cl)cc3)c(C)nn2C)c(Cl)c1 [compound 60]
- Test B rating (% disease control) (Botrytis cinerea; [15]): 75%
- Test I rating (% disease control) [1, 15]: 79%
- Test H rating (% disease control) ([2]; curative spray, 0 = no control): 59%
- Test C rating (% disease control) (Alternaria solani; [15]): 0%
- Test G rating (% disease control) (Septoria tritici; [15]): 97%
- Test J rating (% disease control) [3, 15]: 0%
- Test F rating (% disease control) (Septoria nodorum; [16]): 0%

SMILES: Cc1nn(C)c(Nc2ccc(F)cc2)c1-c1ccc(F)cc1F [compound 194]
- Test B rating (% disease control) (Botrytis cinerea; [4]): 97%
- Test I rating (% disease control) [1, 5]: 91%
- Test H rating (% disease control) [2, 6]: 0%
- Test C rating (% disease control) (Alternaria solani; [4]): 86%
- Test G rating (% disease control) (Septoria tritici; [4]): 99%
- Test J rating (% disease control) [3, 4]: 99%
- Test F rating (% disease control) (Septoria nodorum; [7]): 0%

SMILES: Cc1nn(C)c(Oc2ccc(C#N)cc2F)c1-c1c(F)cccc1F [Compound 361, 4-[[4-(2,6-difluorophenyl)-1,3-dimethyl-1H-pyrazol-5-yl]oxy]-3-fluorobenzonitrile]
- pest or weed control at 200 µg/mL (Botrytis cinerea; read-out: Test B disease control rating): 100%
- pest or weed control at 200 µg/mL ([1]; read-out: Test I disease control rating): 100%
- pest or weed control at 200 µg/mL ([2]; read-out: Test H disease control rating): 0%
- pest or weed control at 200 µg/mL (Alternaria solani; read-out: Test C disease control rating): 90%
- pest or weed control at 200 µg/mL (Septoria tritici; read-out: Test G disease control rating): 100%
- pest or weed control at 200 µg/mL ([3]; read-out: Test J disease control rating): 100%
- pest or weed control at 200 µg/mL (Septoria nodorum; read-out: Test F disease control rating): 0%

SMILES: Cc1nn(C)c(Oc2c(F)cc(C#N)cc2F)c1-c1ccc(Cl)cc1 [compound 44]
- Test B rating (% disease control) (Botrytis cinerea; [15]): 82%
- Test I rating (% disease control) [1, 15]: 9%
- Test H rating (% disease control) ([2]; curative spray, 0 = no control): 7%
- Test C rating (% disease control) (Alternaria solani; [15]): 0%
- Test G rating (% disease control) (Septoria tritici; [15]): 96%
- Test J rating (% disease control) [3, 15]: 0%
- Test F rating (% disease control) (Septoria nodorum; [16]): 0%

SMILES: Cc1nn(C)c(Nc2ccc(C#N)cc2Cl)c1-c1ccc(F)cc1Cl [compound 162]
- Test B rating (% disease control) (Botrytis cinerea; [4]): 99%
- Test I rating (% disease control) [1, 5]: 98%
- Test H rating (% disease control) [2, 6]: 8%
- Test C rating (% disease control) (Alternaria solani; [4]): 0%
- Test G rating (% disease control) (Septoria tritici; [4]): 99%
- Test J rating (% disease control) [3, 4]: 94%
- Test F rating (% disease control) (Septoria nodorum; [7]): 0%

SMILES: Cc1nn(C)c(Oc2c(F)cc(C#N)cc2F)c1-c1cc(C(F)(F)F)ccc1Cl [compound 307]
- Test B disease control rating (Botrytis cinerea): 0%
- Test I disease control rating [1]: 0%
- Test H disease control rating [2]: 0%
- Test C disease control rating (Alternaria solani): 0%
- Test G disease control rating (Septoria tritici): 0%
- Test J disease control rating [3]: 0%
- Test F disease control rating (Septoria nodorum; Septoria glume blotch on wheat): 0%

SMILES: Cc1nn(C)c(Nc2c(F)cc(F)cc2Cl)c1-c1ccc(F)cc1Br [Compound 292, 4-(2-bromo-4-fluorophenyl)-N-(2-chloro-4,6-difluorophenyl)-1,3-dimethyl-1H-pyrazol-5-amine]
- pest or weed control at 200 µg/mL (Botrytis cinerea; [8]): 100%
- pest or weed control at 200 µg/mL [1, 9]: 100%
- pest or weed control at 200 µg/mL [2, 10]: 92%
- pest or weed control at 200 µg/mL (Alternaria solani; [11]): 99%
- pest or weed control at 200 µg/mL (Septoria tritici; [12]): 100%
- pest or weed control at 200 µg/mL [3, 13]: 100%
- pest or weed control at 200 µg/mL (Septoria nodorum; [14]): 96%

SMILES: COc1cc(F)c(-c2c(C)nn(C)c2Nc2ccc(Cl)c(F)c2)c(F)c1 [compound 49]
- Test B rating (% disease control) (Botrytis cinerea; [15]): 100%
- Test I rating (% disease control) [1, 15]: 89%
- Test H rating (% disease control) ([2]; curative spray, 0 = no control): 0%
- Test C rating (% disease control) (Alternaria solani; [15]): 17%
- Test G rating (% disease control) (Septoria tritici; [15]): 99%
- Test J rating (% disease control) [3, 15]: 79%
- Test F rating (% disease control) (Septoria nodorum; [16]): 35%
